Source: patent US8809001B2, “High throughput assays for inhibitors and activators of PAQR receptors” (University of Florida Research Foundation, Inc., priority 2007, dated 2014)

Biological target: T1, AdipoR1 (Homo sapiens, UniProt Q96A54)
T1 construct: expressed in transfected cells; host or cells: Saccharomyces cerevisiae BY4742, GAL1-driven pYES260 plasmid
T1 sequence (Q96A54 1-375): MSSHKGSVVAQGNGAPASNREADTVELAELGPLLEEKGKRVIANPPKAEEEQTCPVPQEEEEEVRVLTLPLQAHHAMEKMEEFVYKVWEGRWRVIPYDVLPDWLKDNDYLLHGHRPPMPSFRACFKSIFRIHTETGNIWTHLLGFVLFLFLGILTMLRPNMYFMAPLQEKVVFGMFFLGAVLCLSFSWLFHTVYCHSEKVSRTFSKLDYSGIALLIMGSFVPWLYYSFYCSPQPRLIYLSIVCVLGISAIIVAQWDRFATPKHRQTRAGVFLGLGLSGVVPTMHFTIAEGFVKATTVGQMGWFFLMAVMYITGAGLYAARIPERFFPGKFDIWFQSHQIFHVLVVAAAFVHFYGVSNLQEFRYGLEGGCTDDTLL
Experiment: FET3-lacZ (pFET3-397) reporter repression in yeast expressing AdipoR1
Format: cell-based
Details: concentrations as high as 10 μM
Description: IZH1-4 were cloned into pRS316-GAL1 via gap repair as previously described (Lyons et al., 2004). The triple hemaglutinin epitope (3×HA) tagged construct of the IZH2 gene was generated by replacing the ZRC1 promoter and open reading frame in the YCpZRC1-HA plasmid (MacDiarmid et al., 2002) with those of IZH2. This was accomplished by gap repair of Age I-digested YCpZRC1-HA to generate pIZH2-3×HA. This construct has the IZH2 gene driven by its native promoter and retains the ZRC1 terminator sequence. The native IZH2 promoter was then exchanged with the GAL1 promoter using gap repair of pIZH2-3×HA plasmids cut with EcoN I. AdipoR1 and AdipoR2 were amplified from cDNAs obtained from OpenBiosystems (Accession #: BC010743 and BC051858, respectively). PCR products were cloned into NcoI/BamHI digested pYES260 vector (Melcher, 2000) by gap repair allowing for GAL1-driven expression. Plasmids containing GAL1-driven the TAP (Tandem Affinity Purification) tagged NRG1 and NRG2 constructs were purchased from OpenBiosystems. […]
Assays and growth conditions. […] Cells were allowed to grow to mid-log phase at which time the activity of the FET3 gene was monitored using a FET3-lacZ promoter-reporter construct. lacZ activities are presented as a percentage of activity seen in untreated cells expressing the appropriate empty expression vector control. […]

Compound: CC(=O)[C@H]1CC[C@H]2[C@@H]3CCC4=CC(=O)CC[C@]4(C)[C@H]3CC[C@]12C [Progesterone, progesterone]
- response of AdipoR1 to progesterone: do not respond
